# Source: publication PMC6112376, “Comprehensive Analyses and Prioritization of Tox21 10K Chemicals Affecting Mitochondrial Function by in-Depth Mechanistic Studies” (Environmental Health Perspectives, 2018)
# Where two headings read alike, the source gives them in different places.
# How the values were obtained:
# rat primary hepatocytes = assay: MMP assay in rat primary hepatocytes; details: for MMP assays IC50 (µM) Rat Hepatocytes / MMP assays efficacy (%) Rat Hepatocytes: mean ± SD of three experiments; for IC50: Rattus norvegicus, Hepatocyte, read-out: MMP assays IC50 (µM) Rat Hepatocytes
# HepG2 cells [1] = details: cited from earlier work
# HepG2 cells [2] = assay: cells; details: Homo sapiens; for IC50: HepG2, read-out: MMP assays IC50 (µM) HepG2; for Emax: HepG2, read-out: MMP assays efficacy (%) HepG2
# [3] = read-out: MMP assays IC50 (µM) qHTS-HepG2
# [4] = read-out: MMP assays IC50 (µM), qHTS-HepG2
SMILES,MMP assays IC50 (µM) Rat Hepatocytes (rat primary hepatocytes),MMP assays efficacy (%) Rat Hepatocytes (rat primary hepatocytes),MMP assays efficacy (%) qHTS-HepG2 (HepG2 cells [1]) [%],IC50 (HepG2 cells [1]; [3]) [µM],IC50 (HepG2 cells [2]) [µM],Emax (HepG2 cells [2]) [%],IC50 (rat primary hepatocytes) [µM],IC50 (HepG2 cells [1]; [4]) [µM]
Nc1ccc2c(O)cc(S(=O)(=O)O)cc2c1,inactive,inactive,-55±5,27.3 ± 3.73,39.8,40,,
COc1ccc(C(=O)c2ccc(OC)cc2O)c(O)c1,,-58±4%,-95±11,7.75 ± 1.8,12.6,109,29.8 ± 13.8,
CC(C)(C)C1=CC(=O)C=C(C(C)(C)C)C1=O,inactive,inactive,-73±22,18.6 ± 12.4,39.8,80,,
C#C[C@]1(O)CC[C@H]2[C@@H]3CCC4=CC(=NO)CC[C@@H]4[C@H]3CC[C@@]21CC (mixture of isomers) [Norelgestromin],,-55±21%,-122±2,,19.4,121,13.4 ± 12.3,13.5 ± 6.64
"O=C1c2ccccc2C(=O)c2c(O)ccc(O)c21 [1,4-Dihydroxyanthracene-9,10-dione]",,-25±3%,-103±19,5.24 ± 3.43,8.91,41,4.81 ± 8.07,
"O=C1OC(=O)c2cccc3cccc1c23 [1H,3H-Naphtho(1,8-cd)pyran-1,3-dione]",inactive,inactive,-51±8,3.89 ± 1.12,7.94,63,,
"CC(C)(C)c1ccc(O)c(C(C)(C)C)c1 [2,4-Di-tert-butylphenol]",,-131±66%,-95±5,3.5 ± 0.73,3.98,101,24 ± 16.6,
"Cc1cc(O)c(Cl)c(C)c1Cl [2,4-Dichloro-3,5-dimethylphenol]",inactive,inactive,-104±10,5.88 ± 4.85,8.91,95,,
"Nc1cccc(N)n1 [2,6-Diaminopyridine]",,-75±28%,-68±18,31.3 ± 10.3,35.5,84,20.9 ± 15.7,
N#CSCSc1nc2ccccc2s1 [2-(Thiocyanomethylthio)benzothiazole],,-136±65%,-85±16,33.1 ± 4.58,56.2,73,30.5 ± 26.4,
"Nc1ccc(N)c([N+](=O)[O-])c1 [2-Nitro-1,4-phenylenediamine]",,,-85±13,7.07 ± 6.53,12.6,87,,
"Cc1cc(O)c(C(C)(C)C)cc1Sc1cc(C(C)(C)C)c(O)cc1C [4,4'-Thiobis(6-tert-butyl-m-cresol)]",,-78±17%,-104±19,1.86 ± 1.18,3.16,115,24.8 ± 11.8,
"Oc1ccc(Sc2ccc(O)cc2)cc1 [4,4'-Thiodiphenol]",,-49±9%,-100±12,21.1 ± 2.7,25.1,115,24.7 ± 9.79,
"Cc1cc(O)c(C(C)(C)C)cc1C(C)(C)C [4,6-Di-tert-butyl-m-cresol]",,-103±14%,,2.25 ± 1.49,2.51,96,45.9 ± 14.7,
"Oc1cc(O)c(Cl)cc1Cl [4,6-Dichloro-1,3-benzenediol]",,-37±3%,-100±10,9.55 ± 2.74,15.8,108,35.7 ± 5.79,
c1ccc(CCCc2ccncc2)cc1 [4-(3-Phenylpropyl)pyridine],,-82±23%,-63±19,16.6 ± 6.74,14.1,46,13 ± 6.83,
Oc1ccc(OCc2ccccc2)cc1 [4-(Benzyloxyl)phenol],,-46±35%,-87±9,18.5 ± 1.51,7.4,93,9.04 ± 8.1,
"Nc1cc(Cl)c(O)c(Cl)c1 [4-Amino-2,6-dichlorophenol]",,-57±8%,-97±9,17.2 ± 13.4,15.8,120,29.6 ± 27.8,

SMILES,MMP assays IC50 (µM) Rat Hepatocytes (rat primary hepatocytes),MMP assays efficacy (%) Rat Hepatocytes (rat primary hepatocytes),MMP assays efficacy (%) qHTS-HepG2 (HepG2 cells [1]) [%],IC50 (HepG2 cells [1]; [3]) [µM],IC50 (HepG2 cells [2]) [µM],Emax (HepG2 cells [2]) [%],IC50 (rat primary hepatocytes) [µM],IC50 (HepG2 cells [1]; [4]) [µM]
"Cc1cc(O)cc(C)c1Cl [4-Chloro-3,5-dimethylphenol]",inactive,inactive,-122±6,21,25.1,106,,
Nc1cc([N+](=O)[O-])ccc1C(=O)O [4-Nitroanthranilic acid],inactive,inactive,-62±14,38.6 ± 17.2,17.8,51,,
CC(C)(C)c1ccc(OC(=O)c2ccccc2O)cc1 [4-tert-Butylphenyl salicylate],inactive,inactive,-78±23,28.4 ± 3.64,35.5,90,,
"Cc1ccc2c(Cl)cc(Cl)c(O)c2n1 [5,7-Dichloro-8-hydroxy-2-methylquinoline]",inactive,inactive,-120±20,11 ± 2,1.38,60,,
CNc1ncnc2nc[nH]c12 [(N-6)-Methyladenine],inactive,inactive,-65±7,5.98 ± 5.84,6.31,56,,
O=C1c2cccc(O)c2C(=O)c2c(O)cc(CO)cc21 [Aloe-emodin],,-48±19%,-78±8,1.79 ± 1.54,7.08,90,8.43 ± 5.96,
CCC(C)(C)c1ccc(CC(C)CN2C[C@@H](C)O[C@@H](C)C2)cc1 (stereo partly drawn) [Amorolfine],inactive,inactive,-63±11,21.6 ± 3.47,17.3,82,,
CCc1oc2ccccc2c1C(=O)c1cc(I)c(O)c(I)c1 [Benziodarone],,-95±10%,-106±2,2.98 ± 0.63,4.35,97,1.76 ± 0.68,
CCC(=O)OCC(=O)[C@@]1(OC(=O)CC)[C@@H](C)C[C@H]2[C@@H]3CCC4=CC(=O)C=C[C@]4(C)[C@@]3(F)[C@@H](O)C[C@@]21C [Betamethasone dipropionate],inactive,inactive,-118±9,25.6 ± 1.67,19.4,63,,
Oc1ccc(C(c2ccc(O)cc2)(C(F)(F)F)C(F)(F)F)cc1 [Bisphenol AF],,,-114±10,5.44 ± 1.42,5.01,102,37.3 ± 6.7,
CC(C)(c1ccc(O)cc1)c1ccc(O)cc1 [Bisphenol A],,-59±20%,-122±14,14 ± 6.29,15.8,111,37.6 ± 3.06,
Cc1ccc2c(Br)cc(Br)c(O)c2n1 [Broquinaldol],,-87±93%,-114±44,26.6 ± 4,12.6,114,38.6 ± 34.6,
C=C1CC[C@H](O)C/C1=C/C=C1\CCC[C@]2(C)[C@@H]([C@H](C)CCCC(C)(C)O)CC[C@@H]12 [Calcifediol],,-66±31%,-109±10,5.82 ± 0.47,12.3,115,14.2 ± 9.57,
C=C1/C(=C\C=C2/CCC[C@]3(C)[C@@H]([C@H](C)/C=C/[C@@H](O)C4CC4)CC[C@@H]23)C[C@@H](O)C[C@@H]1O [Calcipotriene],,-63±23%,-63±12,26 ± 3.89,21.8,124,17.3,
CC(O)(c1ccc(Cl)cc1)c1ccc(Cl)cc1 [Chlorfenethol],,-90±2%,-110±19,26.3 ± 7.53,12.6,100,18.9 ± 5.35,
Cc1cc(O)c2c(O)c3c(O)cccc3cc2c1 [Chrysarobin],,-52±8%,-105±7,22.8 ± 3.93,30.8,90,19.3 ± 8.27,
O=C1CN(/N=C/c2ccc([N+](=O)[O-])o2)C(=O)N1 [Nitrofurantoin],,,-70±6,,,87,,26.3 ± 6.35
Cc1cc(/C=C/c2ccc3cc(N(C)C)ccc3[n+]2C)c(C)n1-c1ccccc1 [Pyrvinium pamoate],,,-108±33,,0.17,91,,2.02 ± 1.2
